Values quoted from earlier work as cited in publication PMC2096654 (Purinergic Signalling, 2006).

Target: T1, human A3 adenosine receptor (Homo sapiens, UniProt P0DMS8)
T1 sequence (P0DMS8 1-318): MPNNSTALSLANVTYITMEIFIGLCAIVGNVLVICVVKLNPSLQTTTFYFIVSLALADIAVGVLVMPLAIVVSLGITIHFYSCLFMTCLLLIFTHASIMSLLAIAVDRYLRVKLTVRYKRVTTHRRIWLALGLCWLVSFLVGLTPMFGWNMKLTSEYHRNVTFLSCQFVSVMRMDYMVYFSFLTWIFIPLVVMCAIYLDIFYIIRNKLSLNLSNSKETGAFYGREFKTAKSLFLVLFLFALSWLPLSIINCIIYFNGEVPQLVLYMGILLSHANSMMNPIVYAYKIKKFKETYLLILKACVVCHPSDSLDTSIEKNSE
Settings: reference agonist

For CNC(=O)[C@H]1O[C@@H](n2cnc3c(NCc4cccc(I)c4)nc(Cl)nc32)[C@H](O)[C@@H]1O [Cl-IB-MECA, 2-chloro-N^6-(3-iodobenzyl)-5′methylcarboxamidoadenosine], the “agonist behaviour at A3 receptor” value is listed as “full agonist”.
